The record followed here is patent US7531318B2, “Screening of agents for activity against ischemic myocardial insults” (priority 2004, dated 2009).

The subject of assay [1] is E11.5 cardiac outflow tract explants (myocardial cells). Briefly: Collagen gel migration assay, embryonic heart explant: myocardial cell migration and beating. Type of assay: cell-based, mouse. The method, then:
Collagen gel migration assay. Outflow tract was dissected from E11.5 wild-type mouse embryos and placed on collagen matrices as previously described (Runyan and Markwald, 1983. After 10 h of attachment explants were incubated in 30 ng per 300 μl thymosin β4 in PBS, PBS alone or thymosin β4 and 100 nM wortmannin. Cultures were carried out for 3-9 days at 37° C. 5% CO2 and fixed in 4% paraformaldehyde in PBS for 10 min at room temperature. Cells were counted for quantification of migration and distance using at least three separate explants under each condition for endothelial migration and eight separate explants for myocardial migration.
Immunocytochemistry on collagen gel explants. Paraformaldehyde-fixed explants were permeabilized for 10 min at room temperature with Permeabilize solution (10 mM PIPES pH 6.8; 50 mM NaCl, 0.5% Triton X-100, 300 mM sucrose, 3 mM MgCl2) and rinsed with PBS twice for 5 min each at room temperature. After a series of blocking and rinsing steps, detection antibodies were used and explants rinsed and incubated with equilibration buffer (Anti-Fade kit) for 10 min at room temperature. Explants were scooped to a glass microscope slide, covered and examined by fluorescein microscopy. TUNEL assay was performed using ApopTag plus fluorescein in situ apoptosis detection kit (Intergen Company S7111) as recommended.
To test the effects of secreted thymosin β4 on cardiac cell migration, the inventors used an embryonic heart explant system designed to assay cell migration and transformation on a collagen gel (Runyan and Markwald, 1983).
To determine whether activation of ILK was necessary for the observed effects of thymosin β4, the inventors used a well-described ILK inhibitor, wortmannin, which inhibits ILK's upstream kinase, phosphatidylinositol-3-OH kinase (PI(3)K) (Delcommenne et al., 1998). Using myocardial cell migration and beating frequency as assays for thymosin β4 activity, the inventors cultured embryonic heart explants as described above in the presence of thymosin β4 with or without wortmannin.

The target in another assay is T1, ILK (Homo sapiens, UniProt Q13418).
T1 construct: expressed in transfected cells; host or cells: Cos and 10T1/2 cells
T1 sequence (Q13418 1-452): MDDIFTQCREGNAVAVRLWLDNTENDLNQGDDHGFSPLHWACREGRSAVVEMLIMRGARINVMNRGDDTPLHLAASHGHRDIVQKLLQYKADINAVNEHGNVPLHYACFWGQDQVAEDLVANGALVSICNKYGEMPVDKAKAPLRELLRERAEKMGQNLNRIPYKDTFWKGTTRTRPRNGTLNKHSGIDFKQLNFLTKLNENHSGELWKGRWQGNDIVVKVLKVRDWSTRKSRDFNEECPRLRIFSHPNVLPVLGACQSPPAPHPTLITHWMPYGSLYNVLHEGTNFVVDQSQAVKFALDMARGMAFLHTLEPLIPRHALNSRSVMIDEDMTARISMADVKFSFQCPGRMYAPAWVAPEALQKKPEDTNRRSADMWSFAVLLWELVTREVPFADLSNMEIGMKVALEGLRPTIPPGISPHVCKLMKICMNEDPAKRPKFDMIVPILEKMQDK
Description: Co-immunoprecipitation of thymosin β4 with ILK. The assay is classed as binding. The protocol: Co-immunoprecipitation. Cos and 10T1/2 cells were transfected with thymosin β4, PINCH and/or ILK and lysates precipitated with antibodies to each as previously described (Garg et al., 2003). Western blots were performed using anti-ILK polyclonal antibody (Santa Cruz), anti-thymosin β4 polyclonal antibody (Yu et al., 1993) (gift of H. Yin) and anti-Myc or anti-Flag antibody against tagged versions of PINCH.
Thymosin β4 activates ILK and Akt. To investigate the potential mechanisms through which thymosin β4 might be influencing cell migration and survival events, the inventors searched for thymosin β4 interacting proteins. The amino terminus of thymosin β4 was fused with affi-gel beads resulting in exposure of the C-terminus, which allowed identification of previously unknown interacting proteins but prohibited association with actin. The inventors synthesized and screened an E9.5-E12.5 mouse heart T7 phage complementary DNA library by phage display, and thymosin-β4-interacting clones were enriched and confirmed by enzyme-linked immunosorbent assay (ELISA, FIG. 3A). […] PINCH and ILK interact directly with one another and indirectly with the actin cytoskeleton as part of a larger complex involved in cell-extracellular matrix interactions known as the focal adhesion complex. […]

For assay [2], the system named is ILK, phosphorylated Akt-S 473. Briefly: Western blot on heart lysates after coronary ligation. Type of assay: in vivo, mouse. The text has this: Animals and surgical procedures. Myocardial infarction was produced in 58 male C57BL/6J mice at 16 weeks of age (25-30 g) by ligation of the left anterior descending coronary artery as previously described (Garner et al., 2003). All animal protocols were reviewed and approved by the University of Texas Southwestern Medical Center Institutional Animal Care Advisory Committee and were in compliance with the rules governing animal use as published by the NIH. Twenty-nine of the ligated mice received thymosin β4 treatment immediately after ligation and the remaining 29 received PBS injections. Treatment was given intracardiac with thymosin β4 (200 ng in 10 μl collagen) or with 10 μl of collagen; intraperitoneally with thymosin β4 (150 μg in 300 μl PBS) or with 300 μl of PBS; or by both intracardiac and intraperitoneal injections. Intraperitoneal injections were given every 3 days until mice were killed. Doses were based on previous studies of thymosin β4 biodistribution (Mora et al., 1997). Hearts were removed, weighed and fixed for histological sectioning. Additional mice were operated on in a similar fashion for studies 0.5, 1, 3, 6 and 11 days after ligation.
Similar to cultured cells, the level of ILK protein was increased in heart lysates of mice treated with thymosin β4 after coronary ligation compared with PBS-treated mice (FIG. 5N).
On the technique in general: Immunoblotting shows a protein as a band on a membrane.

For assay [3], the system named is rat neonatal cardiomyocytes. Description: Primary neonatal cardiomyocyte culture on laminin-coated glass: migration, survival, beating. The assay is classed as cell-based. The text has this:
To test the response of postnatal cardiomyocytes, the inventors cultured primary rat neonatal cardiomyocytes on laminin-coated glass and treated the cells with phosphate-buffered saline (PBS) or thymosin β4.
Primary culture of neonatal cardiomyocytes typically survives for approximately 1 to 2 weeks, with some cells beating for up to 2 weeks when grown on laminin-coated slides in our laboratory. […] In addition, the rate of beating was consistently faster in thymosin-β4-treated neonatal cardiomyocytes (95 versus 50 beats per minute, P<0.02), indicating either a change in cell-cell communication or cell metabolism (FIG. 2M; see also Supplementary FIGS. 1A-I and 2A-M).

[4] abbreviates: compared to control cells, data not shown.

For the substance thymosin β4, in assay [1] (E11.5 outflow tract explants on collagen, 30 ng per 300 μl thymosin β4 vs PBS, P<0.0001), the “myocardial cell migration away from the explant” value is “large number of spontaneously beating, cardiac muscle actin-positive cells that migrated away from the explant”. Moreover, in assay [1] (setting [4]), the “cell death of migrating cells (TUNEL assay)” value is “No significant difference” and the “proliferative rate of migrating cells (phospho-histone H3 immunostaining)” value is “No significant difference”. Besides, the “strength of interaction of ILK with thymosin β4 in the common complex” value with ILK (immunoprecipitation of PINCH, ILK and thymosin β4) was “weaker than with PINCH”. In the assay with ILK (transfected cultured cells), the “co-precipitation with ILK” value was “co-precipitated”. Besides, in assay [2] (compared with PBS-treated mice), the “level of ILK protein in heart lysates” value is recorded as “increased”. The “amount of phosphorylated Akt-S 473 in heart lysates” value in assay [2] (phospho-specific antibodies) is recorded as “elevation”. Moreover, the “time for which rhythmically contracting myocytes were visible” value in assay [3] (controls beat for up to 2 weeks) is recorded as “up to 28 days”. Moreover, the “survival of neonatal cardiomyocytes in primary culture” value in assay [3] (controls typically survive approximately 1 to 2 weeks) is given as “survived significantly longer”. Further, in assay [3] (laminin-coated glass, vs PBS control, P<0.05), the “migrational distance of neonatal cardiomyocytes” value is given as “significantly increased”. The same substance gave a rate of beating in assay [3] (versus 50 in control, P<0.02) of 95 beats per minute.
